The values below come from US7649091B2, “Orally bioavailable low molecular weight metalloporphyrins as antioxidants” (Eukarion, Inc., priority 2003, dated 2010).

What all share (type): in vivo, Balb/c male mice
Data set [1] in a line: Animal bioavailability of Compound 3, i.v. experiment: plasma and organ levels by LC/MS. The conditions noted are these: IV, 238 min. The protocol: (§1) Twenty 8-week-old Balb/c male mice (Charles River, US) were used in all experiments. Mice were kept at a temperature of 22±3° C. and provided with a standard diet and water.
(§2) For i.v. experiment mice received standard food before and during the experiment. For oral route, mice received no food 3 h before the start of the experiment and no food after.
0.1 mL of a solution of Compound 3, 3 mg/mL in mannitol 5% (previously sterilized by filtration onto Acrodisc® syringe filter 0.2 μm HT Tuffryn® membrane) was injected in the tail vein. Two animals were killed 0.5 h after injection, two animals were killed 1 h after injection, two animals were killed 2 h after injection and two animals were killed 4 h after injection.
(§3) At the time of sacrifice, mice were bled by heart puncture. Then organs were removed for biochemical studies (brain, kidney, liver and lung).
Red blood cells and plasma were separated by addition of heparine (15 μL) and centrifugation (2000 rpm, 5 min). […] The liquid layer (50 μL) was then analysed by LC/MS (MRM procedure, Column PARTISIL 5 ODS-3 RAC II, Cat. no. 4222-225).
Organs were washed with 5 ml of distillated water and dried with blotting paper. Volumes of organs were measured by addition of the organ into one half full of water graduated test tube. […]

Data set [2] is described as follows: Animal bioavailability of Compound 3, oral route experiment (gavage): plasma and organ levels by LC/MS. The conditions noted are these: for Brain: Oral. The protocol: as §1, §2
Animals received by gavage a 0.1 mL of a solution of Compound 3 3 mg/mL in mannitol 5% (previously sterilized by filtration onto Acrodisc® syringe filter […] HT Tuffryn® membrane). Two animals were killed 0.5 h after gavage, two animals were killed 1 h after gavage, two animals were killed 2 h after gavage and two animals were killed 4 h after gavage.
as §3
Red blood cells and plasma were separated by addition of heparine (15 μL) and centrifugation (2000 rpm, 5 min). Then 1.5 mL of HPLC mobil phase (Ammonium acetate 3 mM, acetonitrile, methanol, formic acid; 1/1/1/0.07 (v/v) at pH=3) were added to 40 μL of plasma and the mixture was centrifugated (2000 rpm, 5 min). The liquid layer (50 μL) was then analysed by LC/MS (MRM procedure, Column PARTISIL 5 ODS-3 RAC II, Cat. no. 4222-225).
Organs were washed with 5 ml of distillated water and dried with blotting paper. Volumes of organs were measured by addition of the organ into one half full of water graduated test tube. Organs were dried a second time with blotting paper and then weighed. A volume of mobil phase (in mL) corresponding to 6 times of the organ weigh (in g) was added to the organ. The mixture was crushed mechanically (with JANKE & KUNKEL, IKA Labortechnik ULTRA-TURRAX T25; 24000 rpm, 1 min), sonicated 30 min and centrifugated 20 min (2000 rpm). To this mixture, 1 mL of the liquid layer was removed and filtrated with Acrodisc CRPTFE® syringe Filter in order to obtain a clear solution suitable for LC/MS analysis.

The nature of data set [3]: Animal bioavailability of Compound 3, i.v. experiment: plasma and organ levels by LC/MS. To be noted: IV, 82 min.
Where [4] appears, read: 0.1 mL of 3 mg/mL in mannitol 5%, individual mouse.
Setting [5] is: third line = mean of the two mice.

Values joined by “and” are separate entries in the source; they are usually repeats but may differ in a detail not shown here. Identical values can stand only once.

As for “{[{(Porphine-5,15-diyl)bis[cyclopropyl-diyl]}](2-)-N^21,N^22,N^23,N^24}manganese(III)acetate [Compound 3]”, the Brain in data set [1] (setting [4]) is 89 ng/g and 91 ng/g; in data set [1] (setting [5]) it was 90 ng/g; in data set [2] (70 min, 0.1 mL of 3 mg/mL in mannitol 5% by gavage, individual mouse), 88 ng/g and 24 ng/g; in data set [2] (70 min, third line = mean of the two mice) it was 56 ng/g; in data set [2] (234 min, 0.1 mL of 3 mg/mL in mannitol 5% by gavage, individual mouse) it was 8 ng/g and 9 ng/g; in data set [2] (234 min, third line = mean of the two mice) it was 9 ng/g. The Brain in data set [3] (setting [4]) was 25 ng/g and 75 ng/g; in data set [3] (setting [5]), 50 ng/g. The “Brain, oral level as percent of IV level” value in data set [2] (Oral 70 min mean relative to IV 82 min mean (in parentheses)) was “(112%)”; in data set [2] (Oral 234 min mean relative to IV 238 min mean (in parentheses)), “(10%)”. In data set [2] (mouse, in vivo, po), this substance displayed a Lung of 67 ng/g.
